Assay results published in publication PMC10458458, “Characterization of Anticancer Effects of the Analogs of DJ4, a Novel Selective Inhibitor of ROCK and MRCK Kinases” (Pharmaceuticals, 2023).

Legend:
A549 cells = experiment: Western blot of cell cycle regulatory proteins; type: cell-based, human
Experimental: To better understand the anti-proliferative and pro-apoptotic effects of DJ4, expression of key proteins involved in proliferation and apoptosis were determined by a Western blot. A549 cells were treated with 2.5 µM and 10 µM concentrations for 24 h and 48 h. […] We also examined the expression of cyclin D3 and CDK4 (G1/S cell cycle checkpoint kinase).
For protein expression studies, MDA-MB-231 cells were treated with indicated concentrations of DJ4 for 24 h. Additionally, A549 cells were treated for 24 h and 48 h. Cell lysate preparation, protein estimation, and Western blot analysis was performed as per the procedure reported earlier. The blots were probed with cleaved caspase 7 (#9492, Cell Signaling, Danvers, MA, USA), GAPDH (#97166, Cell Signaling, Danvers, MA, USA), β-Actin (#3700, Cell Signaling, Danvers, MA, USA), pErk (#5726, Cell Signaling, Danvers, MA, USA), p21 ^WAF1/CIP1 (#60480, Cell Signaling, Danvers, MA, USA), cyclinD3 (#2936, Cell Signaling, Danvers, MA, USA), CDK4 (#23972, Cell Signaling, Danvers, MA, USA), cleaved PARP (#32563, Cell Signaling, Danvers, MA, USA), pan Erk (#23887, Cell Signaling, Danvers, MA, USA), pMYPT1 (Thr853, # SAB4503944, Millipore, Inc., Burlington, MA, USA) and PCNA (#sc-56, Santa Cruz Biotechnology, Inc., Dallas, TX, USA) antibodies.

CDK11 = experiment: KINOMEscan competition binding assay; design: species or system human; details: CDK11, 10 µM
Excerpt: (§1) To examine specificity of DJ4 to different human kinases, we performed a KINOMEscan profiling assay (DiscoverX, Fremont, CA, USA). The KINOMEscan assay consists of a panel of more than 480 kinases of different classes (TK/TKL/STE/CK1/AGC/CAMK/CMGC/others), including clinically relevant mutants, atypical kinases, lipid, and pathogen kinases. […] However, we also recognized the limitations of DJ4 that preclude its clinical development and the need for further optimization of the DJ4 chemotype.
(§2) The KINOMEscan®, in vitro competition binding assay, was performed by Lead Hunter Discovery Services (DiscoverX Corporation, Fremont, CA, USA) to determine the kinase specificity of DJ4, a novel kinase inhibitor [19, 44]. The KINOMEscan® panel consists of more than 480 kinases, including clinically relevant mutants, lipid, atypical, and pathogen kinases, plus a growing panel of activation-state specific assays. The primary screen was performed using a single concentration of 10 µM, and the results for DJ4 binding interactions are reported as percent of control (%Ctrl). The %Ctrl is calculated as follows: [(DJ4 signal-positive control signal)/(negative control DMSO signal-positive control signal)] x […]. The human kinome tree annotation for DJ4 is plotted with Reaction Biology’s Kinase Mapper and KinMap web interface tool http://kinhub.org/kinmap (accessed on 09 January 2023).

[1] = test system: HL60VCR acute myeloid leukemia cells; experiment: Cell number and cell cycle in multidrug resistant cells; type: cell-based, human; details: 2.5 µM and 5 µM
Experimental: The following cell lines used in this study were obtained from ATCC: NSCLC (A549, CCL-185; H522, CRL-5810; H23, CRL-5800; H2126, CCL-256; H460, HTB-177), melanoma (A375M, CRL-1619), and breast cancer (MDA-MB-231, HTB-26). Cells were maintained in DMEM or RPMI media (Cellgro, Corning, NY, USA) supplemented with 10% fetal bovine serum (Gibco, Fisher Scientific, Hampton, NH, USA) and penicillin/streptomycin (Gibco, Fisher Scientific, Hampton, NH, USA) at 37 °C with 5% CO2 humidified incubator. Acute myeloid leukemia cells (AML, HL60; CCL240) were obtained from ATCC while vincristine resistant HL60 (HL60VCR) cells were a gift from Dr. Hong-Gang Wang (Penn State College of Medicine, Hershey, PA, USA) and both the cells were cultured in IMDM medium (HyClone, Washington, D.C., USA) with 10% FBS.
Figure S3. DJ4 was ineffective in multidrug resistant HL60VCR acute myeloid leukemia cells.
A. Endogenous expression of p-glycoprotein (P-gp) in HL60 and HL60VCR (multidrug resistant cells). β-Actin was used as internal control.
B. P-gp inhibitor cyclosporine A (CsA) treatment (2.5 µM) sensitized resistant cancer cells to DJ4. […] Number of cells were counted using MuseTM cell analyzer.
Statistical significance was analyzed by one-way ANOVA and Dunnett’s multiple comparison post-test. […]
C. […] The cells were treated at 2.5 µM and 5 µM concentrations and analyzed using flow cytometry. […]

CDK7 = molecular target: T1, CDK7 (Homo sapiens, UniProt P50613); experiment: KINOMEscan competition binding assay; details: CDK7, 10 µM
T1 construct: purchased DiscoverX Corporation (Lead Hunter Discovery Services, KINOMEscan)
Excerpt: as §1, §2

FLT3 = molecular target: T2, FLT3 (Homo sapiens, UniProt P36888); experiment: KINOMEscan competition binding assay; details: FLT3, 10 µM
T2 construct: purchased DiscoverX Corporation (Lead Hunter Discovery Services, KINOMEscan)
Excerpt: as §1, §2

MRCK1 = molecular target: T3, MRCK1 (Homo sapiens, UniProt Q5VT25); experiment: KINOMEscan competition binding assay; details: MRCK1, 10 µM
T3 construct: purchased DiscoverX Corporation (Lead Hunter Discovery Services, KINOMEscan)
Excerpt: as §1, §2

CDK9 = molecular target: T4, CDK9 (Homo sapiens, UniProt P50750); experiment: KINOMEscan competition binding assay; details: CDK9, 10 µM
T4 construct: purchased DiscoverX Corporation (Lead Hunter Discovery Services, KINOMEscan)
Excerpt: as §1, §2

CDK14 = molecular target: T5, CDK14 (Homo sapiens, UniProt O94921); experiment: KINOMEscan competition binding assay; details: CDK14, 10 µM
T5 construct: purchased DiscoverX Corporation (Lead Hunter Discovery Services, KINOMEscan)
Excerpt: as §1, §2

MRCK2 = molecular target: T6, MRCK2 (Homo sapiens, UniProt Q9Y5S2); experiment: KINOMEscan competition binding assay; details: MRCK2, 10 µM
T6 construct: purchased DiscoverX Corporation (Lead Hunter Discovery Services, KINOMEscan)
Excerpt: as §1, §2

[2] = test system: RET tyrosine kinase mutants (V804L/V804/M918T); experiment: KINOMEscan competition binding assay; design: species or system human; details: 10 µM
Excerpt: as §1
(§3) Figure 5 The kinase selectivity profile for DJ4 assessed using KINOMEscan high-throughput assay. […] The red spots (ROCK/MRCK/CDK/FLT3/KIT) indicate kinases with high specificity to DJ4. (C,D) The % inhibition profile of DJ4 with wild-type (WT) and its clinically relevant kinase mutants of RET (rearranged during transfection) tyrosine kinase (C) and EGFR (epidermal growth factor receptor) protein kinase (D).
(§4) The KINOMEscan®, in vitro competition binding assay, was performed by Lead Hunter Discovery Services (DiscoverX Corporation, Fremont, CA, USA) to determine the kinase specificity of DJ4, a novel kinase inhibitor [19, 44]. […] The %Ctrl is calculated as follows: [(DJ4 signal-positive control signal)/(negative control DMSO signal-positive control signal)] x 00. […]

[3] = test system: EGFR mutants (G718C, G719S, L858R, etc.); experiment: KINOMEscan competition binding assay; design: species or system human; details: 10 µM
Excerpt: as §1, §3, §4

T3 sequence (Q5VT25 whole entry): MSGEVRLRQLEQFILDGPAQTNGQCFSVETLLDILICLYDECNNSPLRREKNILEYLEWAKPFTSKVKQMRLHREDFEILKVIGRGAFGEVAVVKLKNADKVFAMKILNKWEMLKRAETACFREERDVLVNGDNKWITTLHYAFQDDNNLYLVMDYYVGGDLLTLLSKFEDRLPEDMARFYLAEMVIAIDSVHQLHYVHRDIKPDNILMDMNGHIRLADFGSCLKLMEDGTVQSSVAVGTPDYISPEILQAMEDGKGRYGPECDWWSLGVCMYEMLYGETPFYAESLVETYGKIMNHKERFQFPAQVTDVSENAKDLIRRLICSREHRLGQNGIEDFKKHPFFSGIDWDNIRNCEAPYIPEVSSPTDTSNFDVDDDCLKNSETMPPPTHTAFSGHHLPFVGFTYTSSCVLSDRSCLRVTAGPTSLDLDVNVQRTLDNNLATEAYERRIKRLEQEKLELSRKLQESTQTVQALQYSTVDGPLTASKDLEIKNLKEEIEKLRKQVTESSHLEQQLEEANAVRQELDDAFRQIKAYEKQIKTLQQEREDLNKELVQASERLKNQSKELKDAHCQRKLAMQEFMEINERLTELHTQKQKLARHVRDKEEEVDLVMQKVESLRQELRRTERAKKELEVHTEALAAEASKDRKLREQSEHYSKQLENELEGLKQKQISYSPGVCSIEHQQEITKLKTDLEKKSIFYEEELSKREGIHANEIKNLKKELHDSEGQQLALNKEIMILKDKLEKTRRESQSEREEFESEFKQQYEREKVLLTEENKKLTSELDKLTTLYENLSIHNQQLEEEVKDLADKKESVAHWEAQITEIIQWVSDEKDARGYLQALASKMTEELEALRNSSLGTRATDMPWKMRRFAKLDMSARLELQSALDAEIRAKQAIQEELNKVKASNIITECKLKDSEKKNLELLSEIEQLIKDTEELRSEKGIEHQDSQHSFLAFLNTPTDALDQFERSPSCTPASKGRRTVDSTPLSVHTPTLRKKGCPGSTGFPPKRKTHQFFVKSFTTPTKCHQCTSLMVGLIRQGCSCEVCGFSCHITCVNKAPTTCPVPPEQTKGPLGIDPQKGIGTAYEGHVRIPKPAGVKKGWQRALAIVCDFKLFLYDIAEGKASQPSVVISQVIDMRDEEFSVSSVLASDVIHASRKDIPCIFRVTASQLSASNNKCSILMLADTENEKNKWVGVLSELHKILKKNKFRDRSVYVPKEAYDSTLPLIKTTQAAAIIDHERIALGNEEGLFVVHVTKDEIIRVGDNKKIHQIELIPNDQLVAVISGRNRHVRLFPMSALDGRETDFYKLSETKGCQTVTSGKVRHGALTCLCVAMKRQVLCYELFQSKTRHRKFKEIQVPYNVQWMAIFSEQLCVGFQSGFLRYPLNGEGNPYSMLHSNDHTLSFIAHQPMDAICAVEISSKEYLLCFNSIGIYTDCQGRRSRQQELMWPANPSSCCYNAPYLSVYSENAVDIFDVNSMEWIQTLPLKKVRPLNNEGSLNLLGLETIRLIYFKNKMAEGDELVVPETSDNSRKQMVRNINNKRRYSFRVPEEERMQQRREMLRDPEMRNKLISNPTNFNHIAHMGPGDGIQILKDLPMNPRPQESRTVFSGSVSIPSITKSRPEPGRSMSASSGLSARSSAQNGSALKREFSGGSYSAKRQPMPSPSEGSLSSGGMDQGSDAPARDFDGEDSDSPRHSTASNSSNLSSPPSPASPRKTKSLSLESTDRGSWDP
T2 sequence (P36888 27-993): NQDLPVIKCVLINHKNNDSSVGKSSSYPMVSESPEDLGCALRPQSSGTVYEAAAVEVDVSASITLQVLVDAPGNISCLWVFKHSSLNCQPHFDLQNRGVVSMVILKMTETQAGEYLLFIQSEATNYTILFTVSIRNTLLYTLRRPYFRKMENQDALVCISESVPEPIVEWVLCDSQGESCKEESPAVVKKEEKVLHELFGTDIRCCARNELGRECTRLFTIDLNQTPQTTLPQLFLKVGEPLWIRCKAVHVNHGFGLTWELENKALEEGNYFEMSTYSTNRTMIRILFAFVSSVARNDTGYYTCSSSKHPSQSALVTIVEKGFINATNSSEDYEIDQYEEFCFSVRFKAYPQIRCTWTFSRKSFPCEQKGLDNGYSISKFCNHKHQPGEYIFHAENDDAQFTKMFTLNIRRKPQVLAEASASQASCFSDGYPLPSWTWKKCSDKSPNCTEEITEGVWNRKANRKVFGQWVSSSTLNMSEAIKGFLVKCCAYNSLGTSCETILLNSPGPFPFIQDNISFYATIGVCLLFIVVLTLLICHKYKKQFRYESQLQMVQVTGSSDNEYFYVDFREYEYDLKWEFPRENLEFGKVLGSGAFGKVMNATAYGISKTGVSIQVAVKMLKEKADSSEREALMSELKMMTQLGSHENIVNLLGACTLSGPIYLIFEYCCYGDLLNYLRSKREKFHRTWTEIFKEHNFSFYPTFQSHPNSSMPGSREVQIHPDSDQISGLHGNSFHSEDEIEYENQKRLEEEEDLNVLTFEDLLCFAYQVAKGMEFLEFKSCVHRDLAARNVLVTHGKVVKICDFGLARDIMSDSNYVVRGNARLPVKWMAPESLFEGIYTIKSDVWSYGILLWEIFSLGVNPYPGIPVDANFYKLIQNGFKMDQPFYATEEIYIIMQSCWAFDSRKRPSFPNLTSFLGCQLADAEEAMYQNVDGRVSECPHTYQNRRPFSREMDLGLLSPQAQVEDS
T4 sequence (P50750 whole entry): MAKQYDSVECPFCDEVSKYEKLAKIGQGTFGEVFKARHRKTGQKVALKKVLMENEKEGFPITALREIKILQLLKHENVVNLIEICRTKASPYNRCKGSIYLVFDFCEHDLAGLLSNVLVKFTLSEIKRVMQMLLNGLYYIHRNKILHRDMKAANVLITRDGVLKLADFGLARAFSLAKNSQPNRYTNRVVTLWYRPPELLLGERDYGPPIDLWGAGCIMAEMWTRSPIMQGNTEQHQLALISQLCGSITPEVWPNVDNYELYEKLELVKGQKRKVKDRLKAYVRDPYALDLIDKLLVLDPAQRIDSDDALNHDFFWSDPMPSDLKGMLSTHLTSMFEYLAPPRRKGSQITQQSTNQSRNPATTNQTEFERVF
T5 sequence (O94921 whole entry): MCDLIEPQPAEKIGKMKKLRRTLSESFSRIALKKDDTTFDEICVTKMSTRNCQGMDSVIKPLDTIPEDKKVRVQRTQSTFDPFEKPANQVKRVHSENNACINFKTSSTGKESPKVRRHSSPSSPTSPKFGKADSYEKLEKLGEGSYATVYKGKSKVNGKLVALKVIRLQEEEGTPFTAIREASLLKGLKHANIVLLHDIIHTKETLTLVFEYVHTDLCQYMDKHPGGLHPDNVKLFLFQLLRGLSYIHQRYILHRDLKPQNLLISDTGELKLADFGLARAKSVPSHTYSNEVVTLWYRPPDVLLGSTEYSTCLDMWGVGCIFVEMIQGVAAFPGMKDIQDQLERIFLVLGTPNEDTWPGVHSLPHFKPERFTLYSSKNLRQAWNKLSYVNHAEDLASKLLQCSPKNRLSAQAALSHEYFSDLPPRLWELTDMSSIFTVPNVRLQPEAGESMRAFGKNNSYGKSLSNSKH
T1 sequence (P50613 whole entry): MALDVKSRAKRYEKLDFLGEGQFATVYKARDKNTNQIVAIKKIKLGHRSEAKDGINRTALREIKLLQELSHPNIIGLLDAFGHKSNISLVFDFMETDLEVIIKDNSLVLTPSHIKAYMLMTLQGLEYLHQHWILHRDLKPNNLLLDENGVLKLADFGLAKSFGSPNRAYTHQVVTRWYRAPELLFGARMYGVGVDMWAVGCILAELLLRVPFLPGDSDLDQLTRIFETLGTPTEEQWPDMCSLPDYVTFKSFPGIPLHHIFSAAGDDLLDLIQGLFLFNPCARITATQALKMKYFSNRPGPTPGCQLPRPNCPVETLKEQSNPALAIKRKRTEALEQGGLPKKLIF

O=C1N/C(=N\CCc2ccccc2)S/C1=C/c1c[nH]c2ncccc12 [DJ4]
activation of Erk1/2 (phospho-Erk; pERK) (A549 cells; A549, 2.5 µM, 24 h): significantly induced activation | expression of CDK4 (A549 cells; A549, 2.5 µM, 24 h): upregulated | expression of cyclin D3 (A549 cells; A549, 2.5 µM, 24 h): upregulated | expression of p21 WAF1/CIP1 (A549 cells; A549, 2.5 µM, 24 h): upregulated | expression of p21 WAF1/CIP1, pERK, CDK4, and cyclin D3 (A549 cells; A549, 10 µM, 24 h and 48 h): decreased below vehicle treatment levels | inhibition (KINOMEscan) (CDK11): more than 98% | effect in multidrug resistant cells [1]: ineffective | inhibition at 10 µM (CDK7): > 98% | inhibition at 10 µM (FLT3): > 98% | inhibition at 10 µM (MRCK1): > 98% | inhibition at 10 µM (CDK9): > 98% | inhibition at 10 µM (CDK14): > 98% | inhibition at 10 µM (MRCK2): > 98% | binding of RET mutants relative to wild-type [2]: stronger binding | inhibition of EGFR mutants relative to wild-type form [3]: differential inhibition
